The values that follow come from patent USRE48267E1, “Variants of C-type natriuretic peptide” (priority 2009, dated 2020).

One series deals with Recombinant human NEP (Homo sapiens, UniProt P08473). In words: in vitro NEP cleavage assay (disappearance of non-cleaved CNP variant). In short, it runs like this:
(§1)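 Recombinant human NEP (1 ug/mL final) incubated with 100 uM CNP variant in 0.1 M Tris, pH 7, at 37° C for various times, then quenched with EDTA (10 mM final) and heat. Samples reduced and analysed by HPLC and mass spectrometry. Half-life derived from loss of intact variant over time.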

For series [1], the target named is neutral endopeptidase (NEP) (Homo sapiens, UniProt P08473). Described as above. As to conditions: human, pH 7. A digest of the protocol:
as §1

Series [2] is described as follows: IgG assay (immunogenicity) in mice. As to conditions: wild-type mice, 5 weeks. Here is the method:
An IgG assay was performed to assess whether an IgG immune response was triggered by 5 week exposure of achondroplastic FGFR3^ach mice to CNP22, CNP37 or PEO24-GANRR-CNP22(K4R) (“CNP27-PEO24”) (SEQ ID NO: 36). IgG is the most predominant immunoglobulin in mouse and human serum and is produced as part of the secondary immune response to an antigen. The IgG response to administration of the CNP peptides was determined as follows. 96-well plates were coated with 100 ng/mL CNP22, CNP37 or PEO24-GANRR-CNP22(K4R) (SEQ ID NO: 36) in BupH PBS buffer (Pierce/Thermo, Cat. No. 28372, Rockford, Ill.). After overnight incubation, plates were blocked with Casein-PBS blocking buffer (Pierce/Thermo, Cat. No. 37528) for two hours at room temperature with shaking at 300 rpm. After washing with wash buffer (1×PBS with 0.05% Tween), diluted serum samples from a terminal bleed (diluted 1:25) were added to the plate. Positive and negative controls were also loaded onto the plate. Positive control was 1:25 diluted serum (pooled from 6 individual FVB mice) with anti-CNP22 antibody added (Bachem rabbit anti-CNP22 IgG, Cat. No. T-4222) at 1:1000 dilution. Negative control was the diluted pooled serum. After two hours of incubation, the plates were washed and secondary antibody diluted in blocking buffer was added to the wells. For the mouse serum samples, anti-mouse IgG Fcγ (peroxidase-conjugated affinipure goat anti-mouse IgG, Fcγ fragment, Cat. No. 115-035-071, Jackson Immunoresearch, West Grove, Pa.) was added at a 1:10,000 dilution. For the positive and negative controls, anti-rabbit IgG-HRP (Santa Cruz Biotechnology, Cat. No. SC-2004, Santa Cruz, Calif.) was added to blocking buffer. After two hours of incubation at room temperature with shaking at 300 rpm, plates were washed with wash buffer. 100 uL of TMB (One-step TMB, Pierce/Thermo, Cat. No. 34022) was added to all wells. Plates were incubated at room temperature for 15 minutes with shaking at 300 rpm. Colorimetric reactions were stopped by the addition of 100 uL of 2 N H2SO4. Plates were read at 450 nm (Spectramax, Molecular Devices, Sunnyvale, Calif.) and data was analyzed using SoftMax Pro software (Molecular Devices).
The immunogenic response of wild-type mice administered G-CNP37, PEO12-GANRR-CNP22(K4R) (SEQ ID NO: 36) or Pro-Gly-CNP37, as measured by an increase in serum IgG level, was also assessed by examining terminal bleed serum samples as described above.

A further series concerns wild-type FVB mice. As to conditions: mouse, in vivo. An excerpt:
Group 1 included vehicle-treated mice injected s.c. daily for 9 weeks followed by 1 week of no treatment. Group 2 included mice treated with Pro-Gly-CNP37 (20 nmol/kg) once daily for 1 week, followed by three doses per week for 8 weeks, followed by 1 week of no treatment. Group 3 contained mice treated with Pro-Gly-CNP37 (20 nmol/kg) once daily in alternate weeks (weeks 1, 3, 5, 7 and 9), with 1 week of no treatment following each week of treatment. Group 4 contained mice treated with Pro-Gly-CNP37 (5 nmol/kg) once daily for 9 weeks followed by 1 week of no treatment. Finally, Group 5 included mice treated with Pro-Gly-CNP37 (5 nmol/kg) once daily for 5 weeks without any week of no treatment. Terminal bleed serum was collected from the mice, and cleaved collagen type II, total alkaline phosphatase and total antibody levels were measured therefrom. Cleaved collagen type II levels were measured as described above. Total alkaline phosphatase levels, predominantly from the liver and bones, were measured with the assistance of a veterinary diagnostic laboratory testing facility (Antech). […] Among the advantages of the ECLA platform, any isotype of antibody (IgG, IgM, etc.) can be detected, and the ECLA assay is species-independent. […] At the end of the 1 hour incubation, the MSD plate was washed and 150 uL of 2× read buffer (MSD Cat. No. R92TC-2) was added to the plate. […]

The next series deals with wild type FVB mice. In words: dose responses of CNP variants in wild type FVB mice. As to conditions: mouse, in vivo. As for the experimental part: Tail length and body weight were measured over the course of treatment. Animals were sacrificed at the end of the experiment and bone length assessed.
The subject of the next series is wild type mice. As to conditions: mouse, in vivo.

For orientation: half-life means how long it takes for the measured level to halve.

Where two headings read alike, the source gives them in different places.

Recombinant human NEP, sequence (P08473 whole entry): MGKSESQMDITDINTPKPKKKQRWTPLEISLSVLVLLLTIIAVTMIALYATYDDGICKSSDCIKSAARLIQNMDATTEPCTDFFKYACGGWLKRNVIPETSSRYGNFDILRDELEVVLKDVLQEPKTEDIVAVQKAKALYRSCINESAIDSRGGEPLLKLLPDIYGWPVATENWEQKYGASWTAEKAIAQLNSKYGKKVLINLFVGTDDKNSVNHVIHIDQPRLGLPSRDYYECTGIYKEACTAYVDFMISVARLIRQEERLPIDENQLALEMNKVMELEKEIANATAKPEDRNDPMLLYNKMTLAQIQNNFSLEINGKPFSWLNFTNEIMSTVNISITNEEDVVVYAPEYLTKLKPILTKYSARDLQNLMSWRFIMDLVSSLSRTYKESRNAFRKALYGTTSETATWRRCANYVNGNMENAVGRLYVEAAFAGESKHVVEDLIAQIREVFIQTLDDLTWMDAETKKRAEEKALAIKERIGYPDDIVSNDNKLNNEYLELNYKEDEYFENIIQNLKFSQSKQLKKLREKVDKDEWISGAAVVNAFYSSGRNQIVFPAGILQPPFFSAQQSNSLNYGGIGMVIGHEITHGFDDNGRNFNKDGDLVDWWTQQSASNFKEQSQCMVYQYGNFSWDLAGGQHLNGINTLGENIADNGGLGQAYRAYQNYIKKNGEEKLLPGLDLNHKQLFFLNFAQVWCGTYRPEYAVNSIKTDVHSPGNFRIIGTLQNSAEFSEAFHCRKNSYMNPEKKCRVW
neutral endopeptidase (NEP), sequence (P08473 whole entry): as above

As to `CC[C@H](C)[C@@H]1NC(=O)[C@H](CCCNC(=N)N)NC(=O)[C@H](CC(=O)O)NC(=O)[C@H](CC(C)C)NC(=O)[C@H](CCCCN)NC(=O)[C@H](CC(C)C)NC(=O)CNC(=O)[C@H](Cc2ccccc2)NC(=O)[C@@H](NC(=O)CNC(=O)[C@H](CCCCN)NC(=O)[C@H](CO)NC(=O)[C@H](CC(C)C)NC(=O)CNC(=O)[C@H](CCCCN)NC(=O)[C@H](CCCCN)NC(=O)[C@H](CC(N)=O)NC(=O)[C@H](C)NC(=O)CNC(=O)[C@H](CCCCN)NC(=O)[C@H](Cc2ccc(O)cc2)NC(=O)[C@H](CCCCN)NC(=O)[C@H](CCCNC(=N)N)NC(=O)[C@H](C)NC(=O)[C@H](CC(N)=O)NC(=O)[C@@H]2CCCN2C(=O)[C@H](Cc2c[nH]cn2)NC(=O)[C@H](CCC(=O)O)NC(=O)[C@H](CCC(N)=O)NC(=O)CNC(=O)[C@@H]2CCCN2)CSSC[C@@H](C(=O)O)NC(=O)CNC(=O)[C@H](CC(C)C)NC(=O)CNC(=O)[C@H](CO)NC(=O)[C@H](CCSC)NC(=O)[C@H](CO)NC(=O)CNC1=O` [Pro-Gly-CNP37], the “resistance to NEP cleavage (in words)” value on Recombinant human NEP (in vitro NEP assay, assay period 160 minutes) is recorded as “most resistant to NEP degradation”. The molecule further had a half-life at 100 uM in series [1] greater than 2.67 h. Also, the IgG immune response result in series [2] was “None of the wild-type mice”. Further, the “antibody response in the total antibody assay” value in the series with wild-type FVB mice was “did not show a positive antibody response”. Moreover, the “organ weight compared with vehicle treated animals” value in the series with wild type FVB mice is “no significant changes”.

`CC[C@H](C)[C@@H]1NC(=O)[C@H](CCCNC(=N)N)NC(=O)[C@H](CC(=O)O)NC(=O)[C@H](CC(C)C)NC(=O)[C@H](CCCCN)NC(=O)[C@H](CC(C)C)NC(=O)CNC(=O)[C@H](Cc2ccccc2)NC(=O)[C@@H](NC(=O)CNC(=O)[C@H](CCCCN)NC(=O)[C@H](CO)NC(=O)[C@H](CC(C)C)NC(=O)CNC(=O)[C@H](CCCCN)NC(=O)[C@H](CCCCN)NC(=O)[C@H](CC(N)=O)NC(=O)[C@H](C)NC(=O)CNC(=O)[C@H](CCCCN)NC(=O)[C@H](Cc2ccccc2)NC(=O)[C@H](CCCNC(=N)N)NC(=O)[C@H](Cc2c[nH]cn2)NC(=O)[C@H](C)NC(=O)[C@@H](NC(=O)[C@H](CCC(=O)O)NC(=O)[C@H](CO)NC(=O)[C@H](CCCCN)NC(=O)[C@H](Cc2c[nH]cn2)NC(=O)CN)C(C)C)CSSC[C@@H](C(=O)O)NC(=O)CNC(=O)[C@H](CC(C)C)NC(=O)CNC(=O)[C@H](CO)NC(=O)[C@H](CCSC)NC(=O)[C@H](CO)NC(=O)CNC1=O` [HSA-CNP27]: the “resistance to NEP cleavage (in words)” value on Recombinant human NEP is listed as “most resistant to NEP degradation”. For the same molecule, the half-life at 100 uM in series [1] was greater than 2.67 h. Also, in the series with wild type mice, the “anti-CNP antibodies (IgG antibody response)” value is “elicited and IgG antibody response”.
